Test results taken from patent US12077503B2, “Substituted cyclic amides and their use as herbicides” (FMC CORPORATION, priority 2015, dated 2024).

What was measured:
Format in all cases: in vivo
Details in all cases: scale 0 to 100
[1] = test system: bromegrass, downy (downy bromegrass, Bromus tectorum); experiment: Test D preemergence
Summary of the method: (§1)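 Visual rating, 0 = no effect, 100 = complete control, versus controls ~21 d after treatment. Preemergence application to seeds planted in silt loam; compound in non-phytotoxic solvent mix with surfactant; controlled growth environment.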

[2] = test system: radish, wild (wild radish, Raphanus raphanistrum); experiment: Test D preemergence
Summary of the method: as §1

[3] = test system: deadnettle (henbit deadnettle, Lamium amplexicaule); experiment: Test D preemergence
Summary of the method: as §1

[4] = test system: foxtail, giant (giant foxtail, Setaria faberii); experiment: Test E postemergence
Text: (§2) Seeds of plant species selected from corn (Zea mays), soybean (Glycine max), velvetleaf (Abutilon theophrasti), lambsquarters (Chenopodium album), poinsettia, wild (wild poinsettia, Euphorbia heterophylla), pigweed, palmer (palmer pigweed, Amaranthus palmeri), waterhemp (common waterhemp, Amaranthus rudis), surinam grass (Brachiaria decumbens), crabgrass, large (large crabgrass, Digitaria sangumnalis), crabgrass, Brazil (Brazilian crabgrass, Digitaria horizontalis), Panicum, fall (fall Panicum, Panicum dichotomiflorum), foxtail, giant (giant foxtail, Setaria faberii), foxtail, green (green foxtail, Setaria viridis), goosegrass (Eleusine indica), johnsongrass (Sorghum halepense), ragweed (common ragweed, Ambrosia elatior), barnyardgrass (Echinochloa crus-galli), sandbur (southern sandbur, Cenchrus echinatus), arrowleaf Sida (Sida rhombifolia), ryegrass, Italian (Italian ryegrass, Lolium multiflorum), dayflower, VA (Virginia dayflower, Commelina virginica), field bindweed (Convolvulus arvensis), morningglory (Ipomoea coccinea), nightshade (eastern black nightshade, Solanum ptycanthum), Kochia (Kochia scoparia), nutsedge, yellow (yellow nutsedge, Cyperus esculentus), horseweed (Conyza canadensis), and beggarticks (hairy beggarticks, Bidens pilosa), were planted into a silt loam soil and treated preemergence with test chemicals formulated in a non-phytotoxic solvent mixture which included a surfactant.
(§3) At the same time, plants selected from these crop and weed species were planted in pots containing Sunshine Redi-Earth planting medium comprising spaghnum peat moss, vermiculite, starter nutrients and dolomitic limestone and treated with postemergence applications of a test chemical formulated in the same manner. Plants ranged in height from 2 to 18 cm (1- to 4-leaf stage) for postemergence treatments. Treated plants and controls were maintained in a greenhouse for 14 to 21 d, after which time all species were compared to controls and visually evaluated. Plant response ratings, summarized in Table E, are based on a scale of 0 to 100 where 0 is no effect and 100 is complete control. A dash (-) response means no test result.

[5] = test system: waterhemp (common waterhemp, Amaranthus rudis); experiment: Test E postemergence
Text: as §2, §3

[6] = test system: corn (Zea mays); experiment: Test E postemergence
Text: as §2, §3

[7] = test system: soybean (Glycine max); experiment: Test E postemergence
Text: as §2, §3

[8] = test system: crabgrass, large (large crabgrass, Digitaria sangumnalis); experiment: Test E postemergence
Text: as §2, §3

[9] = test system: pigweed, palmer (palmer pigweed, Amaranthus palmeri); experiment: Test E postemergence
Text: as §2, §3

## CN1C[C@H](c2ccc(C(F)(F)F)cc2)[C@@H](C(=O)Nc2cccc(F)c2F)C1=O [Compound 623, (3S,4S)—N-(2,3-difluorophenyl)-1-methyl-2-oxo-4-[4-(trifluoromethyl)phenyl]-3-pyrrolidinecarboxamide]
[1]; 31 g ai/ha
  Plant response rating: Bromegrass, Downy: 15
[1]; 62 g ai/ha
  Plant response rating: Bromegrass, Downy: 30
[1]; 125 g ai/ha
  Plant response rating: Bromegrass, Downy: 40
[1]; 250 g ai/ha
  Plant response rating: Bromegrass, Downy: 65
[2]; 31 g ai/ha
  Plant response rating: Radish, Wild: 0
[2]; 62 g ai/ha
  Plant response rating: Radish, Wild: 15
[2]; 125 g ai/ha
  Plant response rating: Radish, Wild: 50
[2]; 250 g ai/ha
  Plant response rating: Radish, Wild: 85
[3]; 31 g ai/ha
  Plant response rating: Deadnettle: 25
[3]; 62 g ai/ha
  Plant response rating: Deadnettle: 65
[3]; 125 g ai/ha
  Plant response rating: Deadnettle: 75
[3]; 250 g ai/ha
  Plant response rating: Deadnettle: 75
[4]; 16 g ai/ha
  Plant response rating: Foxtail, Giant: 5
[4]; 31 g ai/ha
  Plant response rating: Foxtail, Giant: 54
[4]; 62 g ai/ha
  Plant response rating: Foxtail, Giant: 56
[4]; 125 g ai/ha
  Plant response rating: Foxtail, Giant: 78
[4]; 250 g ai/ha
  Plant response rating: Foxtail, Giant: 69
[5]; 16 g ai/ha
  Plant response rating: Waterhemp: 11
[5]; 31 g ai/ha
  Plant response rating: Waterhemp: 45
[5]; 62 g ai/ha
  Plant response rating: Waterhemp: 55
[5]; 125 g ai/ha
  Plant response rating: Waterhemp: 65
[5]; 250 g ai/ha
  Plant response rating: Waterhemp: 68
[6]; 16 g ai/ha
  Plant response rating: Corn: 0
[6]; 31 g ai/ha
  Plant response rating: Corn: 0
[6]; 62 g ai/ha
  Plant response rating: Corn: 1
[6]; 125 g ai/ha
  Plant response rating: Corn: 1
[6]; 250 g ai/ha
  Plant response rating: Corn: 4
[7]; 16 g ai/ha
  Plant response rating: Soybean: 0
[7]; 31 g ai/ha
  Plant response rating: Soybean: 0
[7]; 62 g ai/ha
  Plant response rating: Soybean: 20
[7]; 125 g ai/ha
  Plant response rating: Soybean: 19
[7]; 250 g ai/ha
  Plant response rating: Soybean: 35
[8]; 16 g ai/ha
  Plant response rating: Crabgrass, Large: 1
[8]; 31 g ai/ha
  Plant response rating: Crabgrass, Large: 10
[8]; 62 g ai/ha
  Plant response rating: Crabgrass, Large: 10
[8]; 125 g ai/ha
  Plant response rating: Crabgrass, Large: 30
[8]; 250 g ai/ha
  Plant response rating: Crabgrass, Large: 55
[9]; 16 g ai/ha
  Plant response rating: Pigweed, Palmer: 6
[9]; 31 g ai/ha
  Plant response rating: Pigweed, Palmer: 19
[9]; 62 g ai/ha
  Plant response rating: Pigweed, Palmer: 43
[9]; 125 g ai/ha
  Plant response rating: Pigweed, Palmer: 40
[9]; 250 g ai/ha
  Plant response rating: Pigweed, Palmer: 68
